# Measured values published in publication PMC9571628 (Molecules, 2022).
# How the values were obtained:
# [1] = design: method as in PMID 27561659; conditions: following oral administration of SOR; cited from earlier work
# [2] = Pharmacokinetic interaction study between SOR and DAPA in rats (oral gavage, plasma by UPLC-MS/MS);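 also: parameters derived by non-compartmental analysis of plasma concentration–time data, with analyte levels measured by UPLC-MS/MS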
# Procedure: Analytes were quantified using Ultra-Performance Liquid Chromatography-Tandem Mass Spectrometry (UPLC-MS/MS) which consisted of an LC-30A ultra-performance liquid chromatography (Shimadzu, Kyoto, Japan) and Sciex Triple Quad 5500 tandem triple quadrupole mass spectrometer (AB Sciex, Framingham, MA, USA). Chromatographic separation was performed using an XSelect HSS T3 column (2.1 mm × 100 mm, 2.5 μm, Waters, Milford, MA, USA) at 40 °C by gradient elution. The mobile phase consisted of water with 0.1% formic acid and 5 mM ammonium acetate (phase A) and acetonitrile (phase B), and the gradient elution procedure was as follows: 0–0.5 min, 60–90% B; 0.5–3 min, 90% B; 3–3.1 min, 90–60% B; and 3.1–4 min, 60% B. The injection volume was 5 μL.
# A volume of 25 µL plasma samples, 2.5 µL IS mixed working solution, and 150 μL methyl tertbutyl ether was added, then vortex-mixed for 1 min. The mixture was centrifuged at 12,000× g for 10 min. The organic phase was transferred to a new centrifuged tube and evaporated to dryness under a stream of nitrogen at room temperature. The dried samples were redissolved with 100 μL of 50% acetonitrile and briefly vortexed for 1 min, then 5 μL was injected into the UPLC-MS/MS for analysis.
# Adult male Sprague-Dawley (SD) rats weighing 230 ± 30 g were provided by Beijing Weitong Lihua Experimental Animal Technology Co., Ltd. (Beijing, China). The license number is SCXK (Beijing) 2016–0011. All experimental procedures for this study were reviewed and approved by the Animal Ethics Committee of Hebei General Hospital (Shijiazhuang, China) (No. 2022072). The rats were adapted to the standard laboratory conditions (12 h dark–light cycle, temperature at approximately 23 ± 2 °C, relative humidity of 50 ± 10%) for a week. All the rats were given access to water freely, while the diet was prohibited for 12 h before administration.
# Twenty-four healthy rats were randomly divided into four groups (n = 6 in each group). […] Blood samples were then centrifuged at 3500× g for 10 min at 4 °C, and the supernatant was transferred to another centrifuged tube, then stored in a −80 °C freezer until analysis.
# DAS 2.1.1 Software (Mathematical Pharmacology Professional Committee of China, Shanghai, China) was used to calculate pharmacokinetic parameters with non-compartmental analysis. The pharmacokinetic analysis included AUC (area under the concentration–time curve), Cmax (maximum plasma concentration), Tmax (time to maximum plasma concentration), t1/2 (time required to eliminate half of plasma drug concentration), CLz/F (clearance of drug plasma volume per time unit), Vz/F (apparent volume of distribution), and MRT (mean residence time). SPSS 25.0 statistical software (SPSS Inc., Chicago, IL, USA) was used to statistically analyze the above-mentioned pharmacokinetic parameters. Statistical comparisons of the experimental and control groups were conducted using a nonparametric rank-sum test or t-test, depending on the data type; p < 0.05 was considered statistically significant.
# [3] = with metformin; cited from earlier work
# human UGT enzymes = tested on: human UGT enzymes; design: method as in PMID 28065859; conditions: in vitro studies; cited from earlier work
# [4] = design: method as in earlier work; conditions: co-administration of neomycin; cited from earlier work
# Ugt1a7 mRNA = test: qRT-PCR of Ugt1a7 mRNA in liver and intestines of rats after multiple doses; type: in vivo; conditions: multiple doses of SOR (100 mg/kg, seven days)
# Procedure: The qRT-PCR analysis was used to measure mRNA levels of Ugt1a7 in the liver and intestines of rats. Total RNA was isolated from frozen liver and intestine samples using the TRNzol Universal as per the manufacturer’s instructions. A Bio Tek Epoch (Bio Tek Instruments, Inc., Winooski, VT, USA) was used to quantify the concentration and purity of the total RNA based on the ratio of the absorbance between 260 and 280 nm. RNA samples of 1 μg of were converted to complementary (cDNA) using the FastKing RT Kit. The real-time PCR assays were performed using a two-step amplification method according to the manufacturer’s recommendations in a SLAN-96S Real-Time PCR system (Shanghai Hongshi Medical Technology Co., Ltd. Shanghai, China). The PCR cycling conditions were as follows: 95 °C for 15 min, followed by 40 cycles of 95 °C for 10 s and 60 °C for 32 s. The sequences of primers are listed in Table 6. β-actin was used as an internal control.
# [5] = Stability of QC samples in rat plasma under different storage and processing conditions; type: physicochemical; conditions: for Accuracy (RE%) / Mean ± SD concentration found: rat plasma, n = 6
# Procedure: The stability of QC samples in rat plasma was tested in six replicates at three concentration levels exposed to different storage and processing conditions: autosampler for 6 h after processing, room temperature for 4 h, −80 °C for 30 days, three freeze–thaw cycles (−80 °C to room temperature).
# [6] = SOR 100 mg/kg oral, alone, n = 6
# [7] = with multiple doses of DAPA vs control group (SOR alone)
# [8] = Autosampler for 6 h, nominal 10 ng/mL
# [9] = Autosampler for 6 h, nominal 1500 ng/mL
# [10] = Autosampler for 6 h, nominal 3750 ng/mL
# [11] = Freeze–thaw stability for three times, nominal 10 ng/mL
# [12] = Freeze–thaw stability for three times, nominal 1500 ng/mL
# [13] = Freeze–thaw stability for three times, nominal 3750 ng/mL
# [14] = Room temperature for 4 h, nominal 10 ng/mL
# [15] = Room temperature for 4 h, nominal 1500 ng/mL
# [16] = Room temperature for 4 h, nominal 3750 ng/mL
# [17] = −80 °C for 30 days, nominal 10 ng/mL
# [18] = −80 °C for 30 days, nominal 1500 ng/mL
# [19] = −80 °C for 30 days, nominal 3750 ng/mL
smiles,measurement,setting,value
"CNC(=O)c1cc(Oc2ccc(NC(=O)Nc3ccc(Cl)c(C(F)(F)F)c3)cc2)ccn1 [SOR, Sorafenib]",time at which maximum plasma concentrations are reached,[1],approximately 3 h
same,AUC(0-t),[2]; [6],"62,701.33 ± 16,697.65 μg/L × h"
same,Cmax,[2]; [6],1547.87 ± 136.94 ng/mL
same,shape of pharmacokinetic curve of SOR,[2]; after 72 h of SOR gavage,second absorption peak
same,AUC(0-inf),"[2]; male, Sprague-Dawley, rat, plasma, po, 100 mg/kg, AUC0–∞, SOR 100 mg/kg oral, alone, n = 6",63700 ng·h/mL
same,CL/F,"[2]; male, Sprague-Dawley, rat, plasma, po, 100 mg/kg, CLz/F, SOR 100 mg/kg oral, alone, n = 6",28.2 mL/min/kg
same,MRT last,"[2]; male, Sprague-Dawley, rat, plasma, po, 100 mg/kg, MRT0-t, SOR 100 mg/kg oral, alone, n = 6",47.1 ± 9.48 h
same,MRT inf,"[2]; male, Sprague-Dawley, rat, plasma, po, 100 mg/kg, MRT0–∞, SOR 100 mg/kg oral, alone, n = 6",48.7 ± 10.5 h
same,Tmax,"[2]; male, Sprague-Dawley, rat, plasma, po, 100 mg/kg, Tmax, SOR 100 mg/kg oral, alone, n = 6",7.5 ± 0.55 h
same,Vd/F,"[2]; male, Sprague-Dawley, rat, plasma, po, 100 mg/kg, Vz/F, SOR 100 mg/kg oral, alone, n = 6",37.4 ± 9.78 L/kg
same,half-life,"[2]; male, Sprague-Dawley, rat, plasma, po, 100 mg/kg, t1/2z, SOR 100 mg/kg oral, alone, n = 6",17.5 ± 5.65 h
same,"change of t1/2z, MRT0–t and MRT0–∞ of SOR between the groups",[2]; with multiple doses of DAPA vs SOR alone,no statistically significant changes
same,decrease of AUC0–t of SOR,[2]; [7],50.5%
same,decrease of AUC0–∞ of SOR,[2]; [7],46.2%
same,decrease of Cmax of SOR,[2]; [7],41.6%
same,change of exposure to SOR,[3],halved
same,inhibition of human UGT enzymes,human UGT enzymes,one of the most powerful inhibitors
same,decrease of SOR exposure,[4],54%
same,downregulation of mRNA expression of Ugt1a7 in the intestines,Ugt1a7 mRNA; rat intestines,~32.09%
same,downregulation of mRNA expression of Ugt1a7 in the liver,Ugt1a7 mRNA; rat liver,~32.50%
same,Accuracy (RE%),[5]; [8],0.9%
same,Mean ± SD concentration found,[5]; [8],10.09 ± 0.53 ng/mL
same,Accuracy (RE%),[5]; [9],2.6%
same,Mean ± SD concentration found,[5]; [9],1538.33 ± 36.56 ng/mL
same,Accuracy (RE%),[5]; [10],−0.9%
same,Mean ± SD concentration found,[5]; [10],3716.67 ± 66.23 ng/mL
same,Accuracy (RE%),[5]; [11],−1.7%
same,Mean ± SD concentration found,[5]; [11],9.84 ± 0.34 ng/mL
same,Accuracy (RE%),[5]; [12],3.3%
same,Mean ± SD concentration found,[5]; [12],1550.00 ± 12.65 ng/mL
same,Accuracy (RE%),[5]; [13],−4.0%
same,Mean ± SD concentration found,[5]; [13],3601.67 ± 164.00 ng/mL
same,Accuracy (RE%),[5]; [14],6.8%
same,Mean ± SD concentration found,[5]; [14],10.68 ± 0.55 ng/mL
same,Accuracy (RE%),[5]; [15],−3.4%
same,Mean ± SD concentration found,[5]; [15],1448.33 ± 18.35 ng/mL
same,Accuracy (RE%),[5]; [16],−5.8%
same,Mean ± SD concentration found,[5]; [16],3533.33 ± 66.23 ng/mL
same,stability in rat plasma,"[5]; autosampler for 6 h, room temperature for 4 h, −80 °C for 30 days, three cycles of freezing and thawing (−80 °C to room temperature)",stable
same,Accuracy (RE%),[5]; [17],2.0%
same,Mean ± SD concentration found,[5]; [17],10.20 ± 0.39 ng/mL
same,Accuracy (RE%),[5]; [18],2.2%
same,Mean ± SD concentration found,[5]; [18],1533 ± 40.33 ng/mL
same,Accuracy (RE%),[5]; [19],−4.2%
same,Mean ± SD concentration found,[5]; [19],3593.33 ± 142.22 ng/mL
